Reference: ChEMBL document CHEMBL5303573, “Mapping human microbiome drug metabolism by gut bacteria and their genes” (Nature, 2019)

Experiments:
[1] = The drug is tested on Eggerthella lenta strain: ATCC25559 for biotransformation. The drug concentrations were measured before and after a 12-h incubation by liquid-chromatography-coupled mass spectrometry (LC–MS); settings: 2 µM
[2] = The drug is tested on Bacteroides sp. WH2 strain: WH2 for biotransformation. The drug concentrations were measured before and after a 12-h incubation by liquid-chromatography-coupled mass spectrometry (LC–MS); settings: bacteroides sp. wh2, 12 h, 2 µM
[3] = The drug is tested on Subdoligranulum variabile strain: DSM15176 for biotransformation. The drug concentrations were measured before and after a 12-h incubation by liquid-chromatography-coupled mass spectrometry (LC–MS); settings: 2 µM
[4] = The drug is tested on Providencia alcalifaciens strain: DSM30120 for biotransformation. The drug concentrations were measured before and after a 12-h incubation by liquid-chromatography-coupled mass spectrometry (LC–MS); settings: 2 µM
[5] = bacteroides fragilis, 12 h, 2 µM
Description: The drug is tested on Bacteroides fragilis strain: NCTC 9343 for biotransformation. The drug concentrations were measured before and after a 12-h incubation by liquid-chromatography-coupled mass spectrometry (LC–MS)

[6] = The drug is tested on Clostridium symbiosum strain: ATCC14940 for biotransformation. The drug concentrations were measured before and after a 12-h incubation by liquid-chromatography-coupled mass spectrometry (LC–MS); settings: 2 µM
[7] = anaerostipes sp., 12 h, 2 µM
Description: The drug is tested on Anaerostipes sp. strain: fecal isolate for biotransformation. The drug concentrations were measured before and after a 12-h incubation by liquid-chromatography-coupled mass spectrometry (LC–MS)

[8] = victivallis vadensis, 12 h, 2 µM
Description: The drug is tested on Victivallis vadensis strain: ATCC BAA-548 for biotransformation. The drug concentrations were measured before and after a 12-h incubation by liquid-chromatography-coupled mass spectrometry (LC–MS)

[9] = The drug is tested on Clostridium hathewayi strain: DSM13479 for biotransformation. The drug concentrations were measured before and after a 12-h incubation by liquid-chromatography-coupled mass spectrometry (LC–MS); settings: hungatella hathewayi, 2 µM
[10] = clostridioides difficile, 12 h, 2 µM
Description: The drug is tested on Clostridium difficile strain: 120 for biotransformation. The drug concentrations were measured before and after a 12-h incubation by liquid-chromatography-coupled mass spectrometry (LC–MS)

With CN1[C@@H]2CC[C@H]1C[C@@H](OC(=O)C(CO)c1ccccc1)C2 (stereo partly drawn) [ATROPINE] as the molecule, how does the “Bacterial Biotransformation” value [1] read?
Its value is “Compound NOT metabolized”.

And the “Bacterial Biotransformation” value [2]?
The value was “Compound NOT metabolized”.

What about the “Bacterial Biotransformation” value [3] of the same molecule?
Its value is “Compound NOT metabolized”.

What about the “Bacterial Biotransformation” value [4] of the same molecule?
Its value is “Compound NOT metabolized”.

What about the “Bacterial Biotransformation” value [5] of the same molecule?
Its value is “Compound NOT metabolized”.

With Cc1ccc(S(=O)(=O)NC(=O)NN2CC3CCCC3C2)cc1 (stereo not drawn) [GLICLAZIDE] as the molecule, how does the “Bacterial Biotransformation” value [1] read?
Its value is “Compound NOT metabolized”.

And the “Bacterial Biotransformation” value [2]?
The value was “Compound NOT metabolized”.

And the “Bacterial Biotransformation” value [6]?
Its value is “Compound NOT metabolized”.

And the “Bacterial Biotransformation” value [3]?
The value was “Compound NOT metabolized”.

What about the “Bacterial Biotransformation” value [5] of the same molecule?
The value was “Compound NOT metabolized”.

And the “Bacterial Biotransformation” value [7]?
The value was “Compound NOT metabolized”.

And the “Bacterial Biotransformation” value [8]?
The value was “Compound NOT metabolized”.

Which “Bacterial Biotransformation” value [1] does the source give for CN1CCN(C2=Nc3ccccc3Oc3ccc(Cl)cc32)CC1.O=C(O)CCC(=O)O [LOXAPINE SUCCINATE] here?
Its value is “Compound NOT metabolized”.

And the “Bacterial Biotransformation” value [2]?
The value was “Compound NOT metabolized”.

And the “Bacterial Biotransformation” value [6]?
Its value is “Compound NOT metabolized”.

And the “Bacterial Biotransformation” value [3]?
Its value is “Compound NOT metabolized”.

And the “Bacterial Biotransformation” value [5]?
Its value is “Compound NOT metabolized”.

And the “Bacterial Biotransformation” value [7]?
Its value is “Compound NOT metabolized”.

What about the “Bacterial Biotransformation” value [8] of the same molecule?
Its value is “Compound NOT metabolized”.

What does the source list for CCc1nn(CCCN2CCN(c3cccc(Cl)c3)CC2)c(=O)n1CCOc1ccccc1 [NEFAZODONE]?
Bacterial Biotransformation [1]: Compound NOT metabolized; Bacterial Biotransformation [2]: Compound NOT metabolized; Bacterial Biotransformation [6]: Compound NOT metabolized; Bacterial Biotransformation [3]: Compound NOT metabolized; Bacterial Biotransformation [5]: Compound NOT metabolized; Bacterial Biotransformation [7]: Compound NOT metabolized; Bacterial Biotransformation [8]: Compound NOT metabolized

With C#C[C@]1(OC(C)=O)CC[C@H]2[C@@H]3CCC4=C/C(=N/O)CC[C@@H]4[C@H]3CC[C@@]21CC [NORGESTIMATE] as the molecule, how does the “Bacterial Biotransformation” value [1] read?
Its value is “Compound metabolized”.

What about the “Bacterial Biotransformation” value [2] of the same molecule?
The value was “Compound NOT metabolized”.

And the “Bacterial Biotransformation” value [9]?
Its value is “Compound NOT metabolized”.

And the “Bacterial Biotransformation” value [3]?
Its value is “Compound NOT metabolized”.

What about the “Bacterial Biotransformation” value [4] of the same molecule?
Its value is “Compound NOT metabolized”.

What about the “Bacterial Biotransformation” value [5] of the same molecule?
Its value is “Compound NOT metabolized”.

And the “Bacterial Biotransformation” value [7]?
Its value is “Compound NOT metabolized”.

What about the “Bacterial Biotransformation” value [8] of the same molecule?
Its value is “Compound NOT metabolized”.

For O=C(CCCN1CCC(O)(c2ccc(Cl)cc2)CC1)c1ccc(F)cc1 [HALOPERIDOL], which “Bacterial Biotransformation” value [2] is on record?
The value was “Compound NOT metabolized”.

And the “Bacterial Biotransformation” value [9]?
The value was “Compound NOT metabolized”.

What about the “Bacterial Biotransformation” value [6] of the same molecule?
The value was “Compound NOT metabolized”.

What about the “Bacterial Biotransformation” value [3] of the same molecule?
Its value is “Compound NOT metabolized”.

What about the “Bacterial Biotransformation” value [4] of the same molecule?
The value was “Compound NOT metabolized”.

And the “Bacterial Biotransformation” value [5]?
The value was “Compound NOT metabolized”.

And the “Bacterial Biotransformation” value [7]?
Its value is “Compound NOT metabolized”.

What about the “Bacterial Biotransformation” value [10] of the same molecule?
The value was “Compound NOT metabolized”.

Which “Bacterial Biotransformation” value [1] does the source give for COC1=C(OC)C(=O)C(CCCCCCCCCCO)=C(C)C1=O [IDEBENONE] here?
The value was “Compound NOT metabolized”.

What about the “Bacterial Biotransformation” value [2] of the same molecule?
The value was “Compound NOT metabolized”.

What about the “Bacterial Biotransformation” value [6] of the same molecule?
The value was “Compound NOT metabolized”.

What about the “Bacterial Biotransformation” value [3] of the same molecule?
Its value is “Compound metabolized”.

And the “Bacterial Biotransformation” value [5]?
Its value is “Compound metabolized”.

What about the “Bacterial Biotransformation” value [7] of the same molecule?
The value was “Compound metabolized”.

What about the “Bacterial Biotransformation” value [8] of the same molecule?
Its value is “Compound NOT metabolized”.

Which results are given for CC1Cc2ccccc2N1NC(=O)c1ccc(Cl)c(S(N)(=O)=O)c1 (stereo not drawn) [INDAPAMIDE]?
Bacterial Biotransformation [2]: Compound NOT metabolized; Bacterial Biotransformation [9]: Compound NOT metabolized; Bacterial Biotransformation [5]: Compound NOT metabolized; Bacterial Biotransformation [7]: Compound NOT metabolized; Bacterial Biotransformation [10]: Compound NOT metabolized; Bacterial Biotransformation [8]: Compound NOT metabolized

Which “Bacterial Biotransformation” value [1] does the source give for Cc1nc(Nc2ncc(C(=O)Nc3c(C)cccc3Cl)s2)cc(N2CCN(CCO)CC2)n1.O [DASATINIB] here?
The value was “Compound NOT metabolized”.

And the “Bacterial Biotransformation” value [2]?
The value was “Compound NOT metabolized”.

What about the “Bacterial Biotransformation” value [6] of the same molecule?
Its value is “Compound NOT metabolized”.

And the “Bacterial Biotransformation” value [3]?
The value was “Compound metabolized”.

What about the “Bacterial Biotransformation” value [5] of the same molecule?
Its value is “Compound metabolized”.

What about the “Bacterial Biotransformation” value [7] of the same molecule?
The value was “Compound metabolized”.

What about the “Bacterial Biotransformation” value [8] of the same molecule?
Its value is “Compound NOT metabolized”.

What does the source list for Cc1ccc(NC(=O)c2ccc(CN3CCN(C)CC3)cc2)cc1Nc1nccc(-c2cccnc2)n1 [IMATINIB]?
Bacterial Biotransformation [1]: Compound NOT metabolized; Bacterial Biotransformation [2]: Compound NOT metabolized; Bacterial Biotransformation [4]: Compound NOT metabolized; Bacterial Biotransformation [7]: Compound NOT metabolized

Which “Bacterial Biotransformation” value [2] does the source give for CC(C)(C(=O)O)c1ccc(C(O)CCCN2CCC(C(O)(c3ccccc3)c3ccccc3)CC2)cc1 (stereo not drawn) [FEXOFENADINE] here?
Its value is “Compound NOT metabolized”.

And the “Bacterial Biotransformation” value [6]?
Its value is “Compound NOT metabolized”.

What about the “Bacterial Biotransformation” value [4] of the same molecule?
Its value is “Compound NOT metabolized”.

And the “Bacterial Biotransformation” value [5]?
Its value is “Compound NOT metabolized”.

What about the “Bacterial Biotransformation” value [7] of the same molecule?
Its value is “Compound NOT metabolized”.

What about the “Bacterial Biotransformation” value [10] of the same molecule?
Its value is “Compound NOT metabolized”.

Which results are given for CNCC[C@H](Oc1cccc2ccccc12)c1cccs1 [DULOXETINE]?
Bacterial Biotransformation [1]: Compound NOT metabolized; Bacterial Biotransformation [9]: Compound NOT metabolized; Bacterial Biotransformation [6]: Compound NOT metabolized; Bacterial Biotransformation [4]: Compound metabolized; Bacterial Biotransformation [5]: Compound metabolized; Bacterial Biotransformation [7]: Compound NOT metabolized; Bacterial Biotransformation [10]: Compound metabolized; Bacterial Biotransformation [8]: Compound NOT metabolized

With COc1ccc2cc([C@H](C)C(=O)O)ccc2c1 [NAPROXEN] as the molecule, how does the “Bacterial Biotransformation” value [1] read?
The value was “Compound NOT metabolized”.

What about the “Bacterial Biotransformation” value [9] of the same molecule?
Its value is “Compound NOT metabolized”.

What about the “Bacterial Biotransformation” value [6] of the same molecule?
Its value is “Compound NOT metabolized”.

And the “Bacterial Biotransformation” value [4]?
The value was “Compound NOT metabolized”.

What about the “Bacterial Biotransformation” value [5] of the same molecule?
The value was “Compound NOT metabolized”.

And the “Bacterial Biotransformation” value [7]?
Its value is “Compound NOT metabolized”.

What about the “Bacterial Biotransformation” value [10] of the same molecule?
Its value is “Compound NOT metabolized”.

And the “Bacterial Biotransformation” value [8]?
Its value is “Compound NOT metabolized”.

For CCCN1C[C@H](CSC)C[C@@H]2c3cccc4[nH]cc(c34)C[C@H]21.CS(=O)(=O)O [PERGOLIDE MESYLATE], which “Bacterial Biotransformation” value [1] is on record?
The value was “Compound NOT metabolized”.

And the “Bacterial Biotransformation” value [2]?
The value was “Compound NOT metabolized”.

What about the “Bacterial Biotransformation” value [6] of the same molecule?
The value was “Compound NOT metabolized”.

What about the “Bacterial Biotransformation” value [3] of the same molecule?
The value was “Compound NOT metabolized”.

And the “Bacterial Biotransformation” value [5]?
Its value is “Compound NOT metabolized”.

What about the “Bacterial Biotransformation” value [7] of the same molecule?
The value was “Compound NOT metabolized”.

What about the “Bacterial Biotransformation” value [8] of the same molecule?
The value was “Compound NOT metabolized”.

Which “Bacterial Biotransformation” value [1] does the source give for CN1CCN(C(=O)O[C@H]2c3nccnc3C(=O)N2c2ccc(Cl)cn2)CC1 [ESZOPICLONE] here?
The value was “Compound NOT metabolized”.

What about the “Bacterial Biotransformation” value [2] of the same molecule?
The value was “Compound NOT metabolized”.

And the “Bacterial Biotransformation” value [6]?
Its value is “Compound NOT metabolized”.

And the “Bacterial Biotransformation” value [3]?
Its value is “Compound NOT metabolized”.

What about the “Bacterial Biotransformation” value [5] of the same molecule?
Its value is “Compound NOT metabolized”.

And the “Bacterial Biotransformation” value [7]?
Its value is “Compound NOT metabolized”.

And the “Bacterial Biotransformation” value [8]?
Its value is “Compound NOT metabolized”.

Which results are given for COC(=O)Nc1nc2ccc(C(=O)c3ccccc3)cc2[nH]1 [MEBENDAZOLE]?
Bacterial Biotransformation [2]: Compound NOT metabolized; Bacterial Biotransformation [9]: Compound NOT metabolized; Bacterial Biotransformation [6]: Compound NOT metabolized; Bacterial Biotransformation [3]: Compound NOT metabolized; Bacterial Biotransformation [4]: Compound NOT metabolized; Bacterial Biotransformation [5]: Compound metabolized; Bacterial Biotransformation [7]: Compound NOT metabolized; Bacterial Biotransformation [10]: Compound NOT metabolized; Bacterial Biotransformation [8]: Compound NOT metabolized

Which “Bacterial Biotransformation” value [1] does the source give for CCN(CC)C(=O)C1(c2ccccc2)CC1CN (stereo not drawn) here?
Its value is “Compound NOT metabolized”.

And the “Bacterial Biotransformation” value [2]?
The value was “Compound NOT metabolized”.

And the “Bacterial Biotransformation” value [6]?
Its value is “Compound NOT metabolized”.

What about the “Bacterial Biotransformation” value [3] of the same molecule?
Its value is “Compound NOT metabolized”.

And the “Bacterial Biotransformation” value [5]?
The value was “Compound NOT metabolized”.

What about the “Bacterial Biotransformation” value [7] of the same molecule?
Its value is “Compound NOT metabolized”.

What about the “Bacterial Biotransformation” value [8] of the same molecule?
Its value is “Compound NOT metabolized”.
